Measured values as given in ChEMBL document CHEMBL3877331, “Affinity-Based Selectivity Profiling of an In-Class Selective Competitive Inhibitor of Acyl Protein Thioesterase 2” (ACS Med Chem Lett, 2017).
pIC50, pKi: −log10 of the molar value. Calls of active or inactive are those of the source. The rule behind the calls is not given here.

What was measured:
[1] = molecular target: T1, Acyl-protein thioesterase 2 (Homo sapiens, UniProt O95372); experiment: Competitive inhibition of HEK293T cells-derived His-tagged APT2 expressed in Escherichia coli BL21(DE3) preincubated for 30 mins followed by substrate addition by resorufin dye based acetate hydrolysis assay; design: species or system HEK-293T
T1 sequence (O95372 whole entry): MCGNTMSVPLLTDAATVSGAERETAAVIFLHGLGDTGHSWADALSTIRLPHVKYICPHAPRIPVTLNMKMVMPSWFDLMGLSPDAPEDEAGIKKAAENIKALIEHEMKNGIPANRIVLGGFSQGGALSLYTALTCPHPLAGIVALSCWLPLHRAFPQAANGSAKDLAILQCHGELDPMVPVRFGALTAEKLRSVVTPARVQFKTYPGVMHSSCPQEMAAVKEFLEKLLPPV

[2] = molecular target: T2, Ribosyldihydronicotinamide dehydrogenase [quinone] (Homo sapiens) (UniProt P16083); experiment: Binding affinity to NQO2 in HEK293T cells at 50 uM incubated for 1 hr by mass spectrometry analysis relative to azide-PEG3-biotin; assay type: cell-based; conditions: HEK-293T
T2 sequence (whole entry): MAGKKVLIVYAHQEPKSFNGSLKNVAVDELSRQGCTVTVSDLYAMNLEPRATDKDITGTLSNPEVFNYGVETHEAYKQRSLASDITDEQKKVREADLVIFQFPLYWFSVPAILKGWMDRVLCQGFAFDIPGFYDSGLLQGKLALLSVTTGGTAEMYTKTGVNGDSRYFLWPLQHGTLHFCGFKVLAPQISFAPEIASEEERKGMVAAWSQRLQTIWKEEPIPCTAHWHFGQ

[3] = molecular target: FAD synthase (Homo sapiens) (UniProt Q8NFF5); experiment: Binding affinity to FAD1 in HEK293T cells at 50 uM incubated for 1 hr by mass spectrometry analysis relative to azide-PEG3-biotin; assay type: cell-based; conditions: HEK-293T
Chain of FAD synthase (Homo sapiens) (Q8NFF5 whole entry): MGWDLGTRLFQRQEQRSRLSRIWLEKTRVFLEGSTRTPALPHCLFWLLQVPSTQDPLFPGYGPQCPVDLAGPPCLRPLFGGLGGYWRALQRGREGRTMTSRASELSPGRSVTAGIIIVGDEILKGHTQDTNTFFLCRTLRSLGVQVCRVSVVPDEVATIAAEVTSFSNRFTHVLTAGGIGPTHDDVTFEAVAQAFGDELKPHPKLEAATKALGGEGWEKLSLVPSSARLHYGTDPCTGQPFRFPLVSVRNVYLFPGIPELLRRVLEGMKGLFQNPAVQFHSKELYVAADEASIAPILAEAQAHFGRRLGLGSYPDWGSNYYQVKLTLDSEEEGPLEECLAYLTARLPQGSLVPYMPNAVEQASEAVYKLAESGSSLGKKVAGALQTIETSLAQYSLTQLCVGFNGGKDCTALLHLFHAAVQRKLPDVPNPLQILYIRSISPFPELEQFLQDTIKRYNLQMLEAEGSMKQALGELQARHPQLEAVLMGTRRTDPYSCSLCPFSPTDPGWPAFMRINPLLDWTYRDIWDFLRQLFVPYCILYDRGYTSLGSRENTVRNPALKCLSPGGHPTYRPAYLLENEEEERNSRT

[4] = molecular target: T1, Acyl-protein thioesterase 2; experiment: Binding affinity to APT2 in HEK293T cells at 50 uM incubated for 1 hr by mass spectrometry analysis relative to o-ML349-biotin; assay type: cell-based; conditions: HEK-293T
[5] = molecular target: FAD synthase (Homo sapiens) (UniProt Q8NFF5); experiment: Binding affinity to FAD1 in HEK293T cells at 50 uM incubated for 1 hr by mass spectrometry analysis relative to o-ML349-biotin; assay type: cell-based; conditions: HEK-293T
[6] = molecular target: T3, Pyridoxal kinase (Homo sapiens) (UniProt O00764); experiment: Binding affinity to PDXK in HEK293T cells at 50 uM incubated for 1 hr by mass spectrometry analysis relative to o-ML349-biotin; assay type: cell-based; conditions: HEK-293T
T3 sequence (whole entry): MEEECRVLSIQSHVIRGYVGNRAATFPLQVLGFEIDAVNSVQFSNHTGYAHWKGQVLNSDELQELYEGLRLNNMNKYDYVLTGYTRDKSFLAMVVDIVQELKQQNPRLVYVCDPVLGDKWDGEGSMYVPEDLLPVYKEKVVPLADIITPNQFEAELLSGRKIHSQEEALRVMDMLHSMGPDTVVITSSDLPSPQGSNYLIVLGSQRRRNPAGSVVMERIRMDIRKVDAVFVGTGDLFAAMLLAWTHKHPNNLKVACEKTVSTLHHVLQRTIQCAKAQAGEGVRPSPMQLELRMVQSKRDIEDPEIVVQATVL

[7] = molecular target: T3, Pyridoxal kinase (Homo sapiens); experiment: Binding affinity to HEK293T cells-derived His-tagged PDXK expressed in Escherichia coli BL21(DE3) assessed as stoichiometric complex formation at 10 uM after 5 mins by electrospray ionization native mass spectrometry; conditions: HEK-293T
[8] = molecular target: Deoxycytidine kinase (Homo sapiens) (UniProt P27707); experiment: Binding affinity to DCK in HEK293T cells at 50 uM incubated for 1 hr by mass spectrometry analysis relative to o-ML349-biotin; assay type: cell-based; conditions: HEK-293T
Chain of Deoxycytidine kinase (Homo sapiens) (P27707 whole entry, looked up): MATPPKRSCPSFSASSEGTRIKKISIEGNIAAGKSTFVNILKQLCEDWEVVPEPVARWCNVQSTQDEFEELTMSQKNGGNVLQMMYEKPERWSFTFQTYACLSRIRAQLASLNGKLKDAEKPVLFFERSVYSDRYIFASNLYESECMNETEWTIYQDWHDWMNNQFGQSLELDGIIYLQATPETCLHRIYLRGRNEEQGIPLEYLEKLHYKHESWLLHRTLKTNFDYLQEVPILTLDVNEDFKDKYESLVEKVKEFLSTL

[9] = molecular target: T1, Acyl-protein thioesterase 2; experiment: Binding affinity to HEK293T cells-derived His-tagged APT2 expressed in Escherichia coli BL21(DE3) assessed as stoichiometric complex formation at 10 uM after 5 mins by electrospray ionization native mass spectrometry; conditions: HEK-293T
[10] = molecular target: Adenosine kinase (Homo sapiens) (UniProt P55263); experiment: Binding affinity to ADK in HEK293T cells at 50 uM incubated for 1 hr by mass spectrometry analysis relative to azide-PEG3-biotin; assay type: cell-based; conditions: HEK-293T
Chain of Adenosine kinase (Homo sapiens) (P55263 2-362 limits assumed): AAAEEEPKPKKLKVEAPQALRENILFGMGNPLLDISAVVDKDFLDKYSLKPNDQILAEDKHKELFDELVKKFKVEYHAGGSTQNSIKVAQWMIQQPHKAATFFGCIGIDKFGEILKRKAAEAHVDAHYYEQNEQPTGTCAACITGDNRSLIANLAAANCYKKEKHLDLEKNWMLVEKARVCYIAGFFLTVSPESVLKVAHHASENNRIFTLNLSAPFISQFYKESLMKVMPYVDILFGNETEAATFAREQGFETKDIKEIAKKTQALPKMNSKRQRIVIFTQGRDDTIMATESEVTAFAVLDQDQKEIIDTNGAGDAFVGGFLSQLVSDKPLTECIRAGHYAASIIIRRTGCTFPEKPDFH

[11] = molecular target: T1, Acyl-protein thioesterase 2; experiment: Binding affinity to APT2 in HEK293T cells at 50 uM preincubated for 1 hr followed by FP-TAMRA labeling by in-gel fluorescence assay; assay type: cell-based; conditions: HEK-293T
[12] = molecular target: T1, Acyl-protein thioesterase 2; experiment: Binding affinity to APT2 in HEK293T cells at 50 uM incubated for 1 hr by mass spectrometry analysis relative to azide-PEG3-biotin; assay type: cell-based; conditions: HEK-293T
[13] = molecular target: T2, Ribosyldihydronicotinamide dehydrogenase [quinone] (Homo sapiens); experiment: Binding affinity to HEK293T cells-derived His-tagged NQO2 expressed in Escherichia coli BL21(DE3) assessed as stoichiometric complex formation at 10 uM after 5 mins by electrospray ionization native mass spectrometry; conditions: HEK-293T
[14] = molecular target: T3, Pyridoxal kinase (Homo sapiens); experiment: Binding affinity to PDXK in HEK293T cells at 50 uM incubated for 1 hr by mass spectrometry analysis relative to azide-PEG3-biotin; assay type: cell-based; conditions: HEK-293T
Pyridoxal kinase = molecular target: T4, Pyridoxal kinase (Homo sapiens, UniProt O00764); experiment: Inhibition of fluorescein-labeled ML349 binding to HEK293T cells-derived His-tagged PDXK expressed in Escherichia coli BL21(DE3) after 30 mins by fluorescence polarization assay; design: species or system HEK-293T
T4 sequence (O00764 whole entry): T3 sequence (whole entry)

[15] = molecular target: T2, Ribosyldihydronicotinamide dehydrogenase [quinone] (Homo sapiens); experiment: Binding affinity to NQO2 in HEK293T cells at 50 uM incubated for 1 hr by mass spectrometry analysis relative to o-ML349-biotin; assay type: cell-based; conditions: HEK-293T
[16] = molecular target: Adenosine kinase (Homo sapiens) (UniProt P55263); experiment: Binding affinity to ADK in HEK293T cells at 50 uM incubated for 1 hr by mass spectrometry analysis relative to o-ML349-biotin; assay type: cell-based; conditions: HEK-293T
MDCK = experiment: Binding affinity to APT2 in MDCK cells at 50 uM incubated for 1 hr by mass spectrometry analysis; assay type: cell-based; conditions: Canis lupus familiaris
[17] = molecular target: Deoxycytidine kinase (Homo sapiens) (UniProt P27707); experiment: Binding affinity to DCK in HEK293T cells at 50 uM incubated for 1 hr by mass spectrometry analysis relative to azide-PEG3-biotin; assay type: cell-based; conditions: HEK-293T
[18] = molecular target: T1, Acyl-protein thioesterase 2; experiment: Inhibition of fluorescein-labeled ML349 binding to HEK293T cells-derived His-tagged APT2 expressed in Escherichia coli BL21(DE3) after 30 mins by fluorescence polarization assay; design: species or system HEK-293T

Structure (SMILES)	pKi [1]	fold change (FC) [2]	fold change (FC) [3]	fold change (FC) [4]	fold change (FC) [5]	fold change (FC) [6]	Activity [7]	fold change (FC) [8]	Activity [9]	fold change (FC) [10]	Activity [11]	fold change (FC) [12]	Activity [13]	fold change (FC) [14]	pIC50 (Pyridoxal kinase)	fold change (FC) [15]	fold change (FC) [16]	Activity (MDCK)	fold change (FC) [17]	pIC50 [18]
O=C(CCCC[C@@H]1SC[C@@H]2NC(=O)N[C@@H]21)NCCOCCOCCOCCn1cc(COc2ccccc2N2CCN(C(=O)c3cc4c(s3)-c3ccccc3S(=O)(=O)C4)CC2)nn1	< 5.00	3	3	–	–	–	–	–	–	–	–	–	–	–	–	–	–	–	–	–
[N-]=[N+]=NCCOCCOCCOCCNC(=O)CCCC[C@@H]1SC[C@@H]2NC(=O)N[C@@H]21	< 5.00	–	–	–	–	–	–	–	–	–	–	–	–	–	–	–	–	–	–	–
O=C(CCCC[C@@H]1SC[C@@H]2NC(=O)N[C@@H]21)NCCOCCOCCOCCn1cc(COc2ccc(N3CCN(C(=O)c4cc5c(s4)-c4ccccc4S(=O)(=O)C5)CC3)cc2)nn1	5.96	> 5	> 5	> 5	> 5	> 5	Active	> 5	Active	> 5	Active	> 5	Active	> 5	< 5.00	> 5	> 5	Active	> 5	< 5.00
COc1ccc(N2CCN(C(=O)c3cc4c(s3)-c3ccccc3S(=O)(=O)C4)CC2)cc1	–	–	–	–	–	–	Active	–	Active	–	–	–	Active	–	< 5.00	–	–	–	–	–
